Assays:
KRas^WT = target: T1, KRas^WT (Homo sapiens, UniProt P01116); experiment: KRas binding assay (TR-FRET tracer displacement), KRas WT; conditions: TR-FRET tracer displacement, KRas WT
T1 construct: Biotinylated KRas (corresponding to amino acids 1-169, produced at Accelegan Inc.); biotin (biotinylated); purchased Accelegan Inc

KRas^G12C = target: T2, KRas^G12C (Homo sapiens, UniProt P01116, G12C); experiment: KRas binding assay (TR-FRET tracer displacement), KRas G12C; conditions: TR-FRET tracer displacement, KRas G12C
T2 construct: Biotinylated KRas (corresponding to amino acids 1-169, produced at Accelegan Inc.); biotin (biotinylated); purchased Accelegan Inc
T2 sequence (P01116 1-169 isoform P01116-2 G12C): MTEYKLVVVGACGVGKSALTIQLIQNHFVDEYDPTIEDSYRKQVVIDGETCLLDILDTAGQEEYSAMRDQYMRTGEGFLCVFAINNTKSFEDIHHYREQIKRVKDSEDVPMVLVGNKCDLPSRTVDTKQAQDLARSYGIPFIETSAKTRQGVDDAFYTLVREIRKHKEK

KRas^G12D = target: T3, KRas^G12D (Homo sapiens, UniProt P01116, G12D); experiment: KRas binding assay (TR-FRET tracer displacement), KRas G12D
T3 construct: Biotinylated KRas (corresponding to amino acids 1-169, produced at Accelegan Inc.); biotin (biotinylated); purchased Accelegan Inc
T3 sequence (P01116 1-169 isoform P01116-2 G12D): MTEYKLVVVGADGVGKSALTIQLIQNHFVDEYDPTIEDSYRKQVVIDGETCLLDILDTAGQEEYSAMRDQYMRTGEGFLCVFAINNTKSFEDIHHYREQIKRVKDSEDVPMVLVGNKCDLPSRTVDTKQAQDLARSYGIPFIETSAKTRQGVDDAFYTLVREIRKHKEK

KRas^G12S = target: T4, KRas^G12S (Homo sapiens, UniProt P01116, G12S); experiment: KRas binding assay (TR-FRET tracer displacement), KRas G12S; conditions: TR-FRET tracer displacement, KRas G12S
T4 construct: Biotinylated KRas (corresponding to amino acids 1-169, produced at Accelegan Inc.); biotin (biotinylated); purchased Accelegan Inc
T4 sequence (P01116 1-169 isoform P01116-2 G12S): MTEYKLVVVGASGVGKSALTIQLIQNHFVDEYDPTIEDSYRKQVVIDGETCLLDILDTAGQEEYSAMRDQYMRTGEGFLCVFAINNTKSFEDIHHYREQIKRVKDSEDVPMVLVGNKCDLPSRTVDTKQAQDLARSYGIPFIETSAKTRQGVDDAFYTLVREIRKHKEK

KRas^G12V = target: T5, KRas^G12V (Homo sapiens, UniProt P01116, G12V); experiment: KRas binding assay (TR-FRET tracer displacement), KRas G12V
T5 construct: Biotinylated KRas (corresponding to amino acids 1-169, produced at Accelegan Inc.); biotin (biotinylated); purchased Accelegan Inc
T5 sequence (P01116 1-169 isoform P01116-2 G12V): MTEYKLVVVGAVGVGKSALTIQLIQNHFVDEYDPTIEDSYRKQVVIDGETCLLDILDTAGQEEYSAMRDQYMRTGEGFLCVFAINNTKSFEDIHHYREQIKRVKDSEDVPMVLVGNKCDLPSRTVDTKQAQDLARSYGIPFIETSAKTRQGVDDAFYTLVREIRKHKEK

[1] = tested on: KRas-mediated phosphorylation of ERK in MKN1 cells; experiment: Inhibition of KRas-mediated phosphorylation of ERK (Cisbio HTRF pERK), MKN1 cells; type: cell-based; conditions: Homo sapiens, MKN-1
Procedure, shortened: (§1)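 Seeding density was 6,000 cells/well; medium RPMI, 10% FBS. Read-out by homogeneous time-resolved fluorescence (pERK) after 4 hours covered at room temperature.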

[2] = tested on: KRas-mediated phosphorylation of ERK in AsPC-1 cells; experiment: Inhibition of KRas-mediated phosphorylation of ERK (Cisbio HTRF pERK), AsPC-1 cells; type: cell-based; conditions: Homo sapiens, ASPC1, AsPC-1 cells; HTRF pERK
Procedure, shortened: (§2)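 Following a 3-hr exposure of cells to serially diluted compound (from 10 uM, 3-fold, 10 doses), cold lysis for 40 mins preceded a 2-hr room-temperature HTRF immunoassay for phosphorylated ERK.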

[3] = tested on: KRas-mediated phosphorylation of ERK in H727 cells; experiment: Inhibition of KRas-mediated phosphorylation of ERK (Cisbio HTRF pERK), H727 cells; type: cell-based; conditions: Homo sapiens, NCI-H727, H727 cells; HTRF pERK
Procedure, shortened: as §2

[4] = tested on: KRas-mediated phosphorylation of ERK in A549 cells; experiment: Inhibition of KRas-mediated phosphorylation of ERK (Cisbio HTRF pERK), A549 cells; type: cell-based; conditions: Homo sapiens, HTRF pERK
Procedure, shortened: (§3)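 Min control wells contained 0.2 uM Trametinib, while test compounds ran as 10 doses (3-fold, top 10 uM; 0.8% DMSO final) on cells for 3 hrs. After 40 mins lysis at 4° C, lysates were probed with HTRF antibodies for 2 hrs at room temperature.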

[5] = tested on: KRas-mediated phosphorylation of ERK in H460 cells; experiment: Inhibition of KRas-mediated phosphorylation of ERK (Cisbio HTRF pERK), H460 cells; type: cell-based; conditions: Homo sapiens, NCI-H460, HTRF pERK
Procedure, shortened: as §2

[6] = tested on: KRas-mediated phosphorylation of ERK in HCT116 cells; experiment: Inhibition of KRas-mediated phosphorylation of ERK (Cisbio HTRF pERK), HCT116 cells; type: cell-based; conditions: Homo sapiens, HCT-116, HTRF pERK
Procedure, shortened: as §3

[7] = tested on: KRas-mediated phosphorylation of ERK in H358 cells; experiment: Inhibition of KRas-mediated phosphorylation of ERK (Cisbio HTRF pERK), H358 cells; type: cell-based; conditions: Homo sapiens, NCI-H358, HTRF pERK
Procedure, shortened: as §2

[8] = tested on: KRas-mediated phosphorylation of ERK in H2009 cells; experiment: Inhibition of KRas-mediated phosphorylation of ERK (Cisbio HTRF pERK), H2009 cells; type: cell-based; conditions: Homo sapiens, NCI-H2009
Description: Inhibition of KRas Phosphorylation of ERK (HTRF) by Exemplary Compounds of Formula (I)
Cisbio HTRF Advanced PERK Assay Catalog #64AERPEH
1. To harvest cells from flask using 0.05% Trypsin/EDTA solution. Add 10 mL of media to stop trypsinizing. Pipette the cells into a conical bottom 50 mL centrifuge tube and centrifuge 5 min×1000 rpm.
2. Re-suspend the cell pellet in media, take a cell count, and then adjust the cell density using fresh media.
3. Seed 6,000 cells into cell culture plate with 50 μL media. […]
4. Incubate cell plate overnight in a 37° C., 5% CO2 incubator.
1. Use Tecan to complete the compound addition. Compounds start from 10 uM top, 3-fold dilution, and 10 doses. The final DMSO concentration is 0.8%. Dispensed 0.2 uM Trametinib as Min control.
2. Incubate cell plate for 3 hrs in the incubator.
Detection with Cisbio pERK HTRF Kit
1. Dilute 1 volume of 4× lysis buffer with 3 volumes of deionized water. Then, add 100× the blocking reagent. Keep lysis buffer on the ice.
2. At the end of the compound treatment, flick-off the media.
3. Add 35 μL of lysis buffer per well using a Multidrop Combi. Then place on a plate agitator shaking at 300 rpm at 4° C. for 40 mins.
4. Make up the HTRF antibody buffer. For each assay plate, mix 50 μL of d2-conjugate antibody with 950 μL of detection buffer. Similarly, mix 50 μL of Cryptate antibody with 950 μL of detection buffer. Then mix the two diluted antibodies together.
5. Dispense 3.4 μL the antibody buffer to wells of an empty assay plate. Seal the plate and centrifuge plate 30 sec×1000 rpm.
6. At the end of the 4° C. lysis, centrifuge the lysate plates 3 mins×1500 rpm.
7. Use the Bravo to transfer 13.6 μL of lysate from cell culture plate to assay plate. Then incubate assay plate for 2 hrs at room temperature.
8. At the end of incubation, read plate on the Envision after centrifuging plate 30 sec×1000 rpm.

KRas^G12R = target: T6, KRas^G12R (Homo sapiens, UniProt P01116, G12R); experiment: KRas binding assay (TR-FRET tracer displacement), KRas G12R
T6 construct: Biotinylated KRas (corresponding to amino acids 1-169, produced at Accelegan Inc.); biotin (biotinylated); purchased Accelegan Inc
T6 sequence (P01116 1-169 isoform P01116-2 G12R): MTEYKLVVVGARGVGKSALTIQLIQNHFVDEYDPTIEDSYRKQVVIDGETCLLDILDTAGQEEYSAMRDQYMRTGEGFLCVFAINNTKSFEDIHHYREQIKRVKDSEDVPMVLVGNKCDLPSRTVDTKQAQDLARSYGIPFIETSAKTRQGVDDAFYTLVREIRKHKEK

[9] = tested on: KRas-mediated phosphorylation of ERK in PSN1 cells; experiment: Inhibition of KRas-mediated phosphorylation of ERK (Cisbio HTRF pERK), PSN1 cells; type: cell-based; conditions: Homo sapiens
Procedure, shortened: as §1

KRas^G12A = target: T7, KRas^G12A (Homo sapiens, UniProt P01116, G12A); experiment: KRas binding assay (TR-FRET tracer displacement), KRas G12A; conditions: TR-FRET tracer displacement, KRas G12A
T7 construct: Biotinylated KRas (corresponding to amino acids 1-169, produced at Accelegan Inc.); biotin (biotinylated); purchased Accelegan Inc
T7 sequence (P01116 1-169 isoform P01116-2 G12A): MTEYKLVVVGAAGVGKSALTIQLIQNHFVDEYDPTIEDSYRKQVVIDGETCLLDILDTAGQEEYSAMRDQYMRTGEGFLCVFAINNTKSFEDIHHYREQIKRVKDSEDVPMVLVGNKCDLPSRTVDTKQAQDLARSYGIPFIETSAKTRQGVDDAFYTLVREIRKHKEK

KRas^G13D = target: T8, KRas^G13D (Homo sapiens, UniProt P01116, G13D); experiment: KRas binding assay (TR-FRET tracer displacement), KRas G13D; conditions: TR-FRET tracer displacement, KRas G13D
T8 construct: Biotinylated KRas (corresponding to amino acids 1-169, produced at Accelegan Inc.); biotin (biotinylated); purchased Accelegan Inc
T8 sequence (P01116 1-169 isoform P01116-2 G13D): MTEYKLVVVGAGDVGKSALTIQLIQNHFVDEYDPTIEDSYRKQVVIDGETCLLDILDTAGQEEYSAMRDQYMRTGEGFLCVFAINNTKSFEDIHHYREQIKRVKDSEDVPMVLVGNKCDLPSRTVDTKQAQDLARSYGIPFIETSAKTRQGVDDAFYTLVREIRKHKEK

KRas^Q61H = target: T9, KRas^Q61H (Homo sapiens, UniProt P01116, Q61H); experiment: KRas binding assay (TR-FRET tracer displacement), KRas Q61H; conditions: TR-FRET tracer displacement, KRas Q61H
T9 construct: Biotinylated KRas (corresponding to amino acids 1-169, produced at Accelegan Inc.); biotin (biotinylated); purchased Accelegan Inc
T9 sequence (P01116 1-169 isoform P01116-2 Q61H): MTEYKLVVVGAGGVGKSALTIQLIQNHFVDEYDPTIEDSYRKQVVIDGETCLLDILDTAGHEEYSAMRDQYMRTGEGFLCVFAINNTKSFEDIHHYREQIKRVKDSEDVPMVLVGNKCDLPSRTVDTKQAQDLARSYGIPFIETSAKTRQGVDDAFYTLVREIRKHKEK

T1 sequence (P01116 1-169 isoform P01116-2): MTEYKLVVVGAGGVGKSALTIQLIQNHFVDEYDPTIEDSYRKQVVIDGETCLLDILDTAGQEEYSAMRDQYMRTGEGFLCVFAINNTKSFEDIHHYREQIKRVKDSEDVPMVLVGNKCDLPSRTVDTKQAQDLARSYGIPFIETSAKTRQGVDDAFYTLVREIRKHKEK

| Compound | IC50 (KRas^WT) [nM] | IC50 (KRas^G12C) [nM] | IC50 (KRas^G12D) [nM] | IC50 (KRas^G12S) [nM] | IC50 (KRas^G12V) [nM] | IC50 [1] [nM] | IC50 [2] [nM] | IC50 [3] [nM] | IC50 [4] [nM] | IC50 [5] [nM] | IC50 [6] [nM] | IC50 [7] [nM] | IC50 [8] [nM] | IC50 (KRas^G12R) [nM] | IC50 [9] [nM] | IC50 (KRas^G12A) [nM] | IC50 (KRas^G13D) [nM] | IC50 (KRas^Q61H) [nM] |
| --- | --- | --- | --- | --- | --- | --- | --- | --- | --- | --- | --- | --- | --- | --- | --- | --- | --- | --- |
| C/C=C1\CN2CCCC2(COc2nc(N3C[C@@H]4C[C@H](C3)[C@H](O)C4)c3cnc(-c4cc(O)cc5ccc(F)c(CC)c45)c(F)c3n2)C1 (stereo partly drawn) [Example 938, (1R,5R,6R)-3-(7-(8-ethyl-7-fluoro-3-hydroxynaphthalen-1-yl)-2-(((Z)-2-ethylidenetetrahydro-1H-pyrrolizin-7a(5H)-yl)methoxy)-8-fluoropyrido[4,3-d]pyrimidin-4-yl)-3-azabicyclo[3.2.1]octan-6-ol] | < 2 | < 2 | < 2 | < 2 | < 2 | 0.2 | 9 | 4 | 3 | 4 | 7 | 1 | 1 |  |  |  |  |  |
| CCc1c(F)ccc2cc(O)cc(-c3ncc4c(N5CCC[C@@](C)(O)C5)nc(OC[C@@]56CCCN5C/C(=C\F)C6)nc4c3F)c12 [Example 791, (R)-1-(7-(8-ethyl-7-fluoro-3-hydroxynaphthalen-1-yl)-8-fluoro-2-(((S,Z)-2-(fluoromethylene)tetrahydro-1H-pyrrolizin-7a(5H)-yl)methoxy)pyrido[4,3-d]pyrimidin-4-yl)-3-methylpiperidin-3-ol] |  |  | < 2 |  | < 2 | 0.1 | 1 | 2 | 1 | 1 | 2 | 1 | 1 | < 2 | 80 |  |  |  |
| C=C1CN2CCCC2(COc2nc(N3CCCC4(CCO4)C3)c3cnc(-c4cc(O)cc5ccc(F)c(CC)c45)c(F)c3n2)C1 (stereo not shown) [Example 941, 5-ethyl-6-fluoro-4-(8-fluoro-2-((2-methylenetetrahydro-1H-pyrrolizin-7a(5H)-yl)methoxy)-4-(1-oxa-6-azaspiro[3.5]nonan-6-yl)pyrido[4,3-d]pyrimidin-7-yl)naphthalen-2-ol] | < 2 | < 2 | < 2 | < 2 | < 2 | 0.1 | 1 | 2 | 2 | 2 | 3 | 1 | 1 |  |  |  |  |  |
| C[C@@H]1C[C@@H]1c1c(Cl)cc(O)cc1-c1ncc2c(N3CC4CCC(C3)N4)nc(OC[C@@]34CCCN3C/C(=C\F)C4)nc2c1F [Example 806, 3-(4-(3,8-diazabicyclo[3.2.1]octan-3-yl)-8-fluoro-2-(((S,Z)-2-(fluoromethylene)tetrahydro-1H-pyrrolizin-7a(5H)-yl)methoxy)pyrido[4,3-d]pyrimidin-7-yl)-5-chloro-4-(cis-2-methylcyclopropyl)phenol] | 4 | 3 | < 2 | 2 | 4 | 19 | 2 | 364 | 139 | 107 | 129 | 43 | 29 |  |  |  |  |  |
| CCc1c(F)ccc2cc(O)cc(-c3ncc4c(N5C[C@@H]6C[C@H](C5)[C@H](O)C6)nc(OC[C@@]56CCCN5C/C(=C\F)C6)nc4c3F)c12 [Example 942, (1R,5R,6R)-3-(7-(8-ethyl-7-fluoro-3-hydroxynaphthalen-1-yl)-8-fluoro-2-(((S,Z)-2-(fluoromethylene)tetrahydro-1H-pyrrolizin-7a(5H)-yl)methoxy)pyrido[4,3-d]pyrimidin-4-yl)-3-azabicyclo[3.2.1]octan-6-ol] |  |  |  |  |  |  | 2 | 1 | 1 | 1 | 1 | 0.4 | 1 |  |  |  |  |  |
| C[C@@H]1C[C@@H]1c1c(Cl)cc(O)cc1-c1ncc2c(N3CCC[C@@](C)(O)C3)nc(OC[C@@]34CCCN3C/C(=C\F)C4)nc2c1F [Example 944, (R)-1-(7-(3-chloro-5-hydroxy-2-((1S,2R)-2-methylcyclopropyl)phenyl)-8-fluoro-2-(((S,Z)-2-(fluoromethylene)tetrahydro-1H-pyrrolizin-7a(5H)-yl)methoxy)pyrido[4,3-d]pyrimidin-4-yl)-3-methylpiperidin-3-ol] | < 2 | < 2 | < 2 | < 2 | < 2 |  | 2 | 6 | 6 | 3 | 6 | 1 | 1 |  |  |  |  |  |
| C[C@@]1(O)CCCN(c2nc(OCC34CCCN3CCC4)nc3c(F)c(-c4c(C5CC5)c(Cl)cc5[nH]ncc45)ncc23)C1 [Example 876, (3R)-1-(7-(6-chloro-5-cyclopropyl-1H-indazol-4-yl)-8-fluoro-2-((tetrahydro-1H-pyrrolizin-7a(5H)-yl)methoxy)pyrido[4,3-d]pyrimidin-4-yl)-3-methylpiperidin-3-ol] | 17 | 9 | 10 | 13 | 11 | 112 | 661 | 1560 | 1040 | 561 | 1130 | 234 |  | 22 | > 10000 | 14 | 10 | 18 |
| C[C@@H]1C[C@@H]1c1c(Cl)cc(O)cc1-c1ncc2c(N3C[C@H]4CC[C@@H](C3)N4)nc(OC[C@@]34CCCN3C/C(=C\F)C4)nc2c1F [Example 946, 3-(4-((1R,5S)-3,8-diazabicyclo[3.2.1]octan-3-yl)-8-fluoro-2-(((S,Z)-2-(fluoromethylene)tetrahydro-1H-pyrrolizin-7a(5H)-yl)methoxy)pyrido[4,3-d]pyrimidin-7-yl)-5-chloro-4-((1S,2R)-2-methylcyclopropyl)phenol] |  |  |  |  |  |  | 8 | 847 | 984 | 494 | 628 | 212 | 229 |  |  |  |  |  |
